Measurements reported in patent publication US8871799B2, “Iminochromene anti-viral compounds” (priority 2010, dated 2014).

Assays:
HCV2a virus = test: HCV IF antiviral assay (HCV inhibition assay); type: cell-based, Hepatitis C virus; settings: for Number HCV infected cells: Huh7 cells, 80 infected cells at 0 μM
[1] = system: Murine Encephalomyocarditis virus (EMCV); test: EMCV antiviral assay (MTS cell viability); settings: Huh7 cells, 250 pfu EMCV, negative controls ~0.7-0.75
HCV = HCV RNA release by Huh7 cells; type: cell-based, Hepatitis C virus; settings: control level 100% in the absence of drug

| Compound | Change in number of HCV-infected cells with increasing concentration (HCV2a virus; 0, 5 μM, 10 μM and 50 μM) | Number HCV infected cells (HCV2a virus; KIN700 added 5 μM) | Number HCV infected cells (HCV2a virus; KIN700 added 10 μM) | Number HCV infected cells (HCV2a virus; KIN700 added 50 μM) | Cell viability post-infection ([1]; 5 μM) | Cell viability post-infection ([1]; 10 μM) | Cell viability post-infection ([1]; 20 μM) | Level of HCV RNA in supernatant (HCV; KIN700 at 10 μM) | HCV infection with positive control treatment (HCV2a virus; positive control, representative experiments) | Level of HCV RNA in supernatant (HCV; Interferon sample) |
| --- | --- | --- | --- | --- | --- | --- | --- | --- | --- | --- |
| COc1ccc(/N=c2\oc3ccc(Cl)cc3cc2C(N)=S)cc1 [KIN700] | dose-dependent decrease | 25 | 13 | 13 | ~0.8 | ~1.5 | ~1.7 | less than 10% |  |  |
| interferon [reference compound] |  |  |  |  |  |  |  |  | completely blocks HCV infection | less than 5% |
